#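 The concentration for 50% growth inhibition is given as GI50. TGI: concentration producing complete growth inhibition.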
# Legend:
# Assay in all cases: growth of human tumour cells (NCI), 384-well format
# LOX IMVI melanoma = system: LOX IMVI melanoma
# SNB-19 CNS = system: SNB-19 CNS
# EKVX NSCLC = system: EKVX NSCLC
# HCT-116 colon = system: HCT-116 colon
# IGROV1 ovarian = system: IGROV1 ovarian
# ACHN renal = system: ACHN renal
# SK-MEL-5 melanoma = system: SK-MEL-5 melanoma
# MDA-MB-468 breast = system: MDA-MB-468 breast
# NCI-H23 lung = system: NCI-H23 lung
# HS 578T breast = system: HS 578T breast
# SW-620 colon = system: SW-620 colon
# OVCAR-5 ovarian = system: OVCAR-5 ovarian
# 786-0 renal = system: 786-0 renal
# HCT-15 colon = system: HCT-15 colon
# DU-145 prostate = system: DU-145 prostate
# NCI-H522 lung = system: NCI-H522 lung
# A498 renal = system: A498 renal
# SK-OV-3 ovarian = system: SK-OV-3 ovarian
# NCI-H226 lung = system: NCI-H226 lung
# MCF7 breast = system: MCF7 breast
# HOP-62 NSCLC = system: HOP-62 NSCLC
# MDA-MB-435 melanoma = system: MDA-MB-435 melanoma
# HCC-2998 colon = system: HCC-2998 colon
# SK-MEL-28 melanoma = system: SK-MEL-28 melanoma
# NCI-H460 NSCLC = system: NCI-H460 NSCLC
# MDA-MB-231 breast = system: MDA-MB-231 breast
# HT29 colon = system: HT29 colon
# SF-295 CNS = system: SF-295 CNS
# HL-60(TB) leukemia = system: HL-60(TB) leukemia
# HOP-92 NSCLC = system: HOP-92 NSCLC
# M14 melanoma = system: M14 melanoma
# OVCAR-3 ovarian = system: OVCAR-3 ovarian
# SNB-75 CNS = system: SNB-75 CNS
# NCI-H322M lung = system: NCI-H322M lung
# RXF 393 renal = system: RXF 393 renal
# TK-10 renal = system: TK-10 renal
# UACC-257 melanoma = system: UACC-257 melanoma
# PC-3 prostate = system: PC-3 prostate
# UO-31 renal = system: UO-31 renal
# CAKI-1 renal = system: CAKI-1 renal
# U251 glioblastoma = system: U251 glioblastoma
# SR leukemia = system: SR leukemia
# T-47D breast = system: T-47D breast
# SN12C renal = system: SN12C renal
# BT-549 breast = system: BT-549 breast
# KM12 colon = system: KM12 colon
# SF-268 CNS = system: SF-268 CNS
# A549 NSCLC = system: A549 NSCLC
# CCRF-CEM leukemia = system: CCRF-CEM leukemia
# SF-539 CNS = system: SF-539 CNS
# MALME-3M melanoma = system: MALME-3M melanoma
# OVCAR-4 ovarian = system: OVCAR-4 ovarian
structure (smiles),measurement,setting,value
O=C(Nc1cn[nH]c1-c1nc2ccc(CN3CCOCC3)cc2[nH]1)NC1CC1,GI50,LOX IMVI melanoma,248 nM
same,TGI,LOX IMVI melanoma,1120 nM
same,GI50,SNB-19 CNS,256 nM
same,TGI,SNB-19 CNS,1730 nM
same,GI50,EKVX NSCLC,196 nM
same,TGI,EKVX NSCLC,4490 nM
same,GI50,HCT-116 colon,71 nM
same,TGI,HCT-116 colon,> 100000 nM
same,GI50,IGROV1 ovarian,633 nM
same,TGI,IGROV1 ovarian,> 100000 nM
same,GI50,ACHN renal,413 nM
same,TGI,ACHN renal,> 100000 nM
same,GI50,SK-MEL-5 melanoma,1260 nM
same,TGI,SK-MEL-5 melanoma,2670 nM
same,GI50,MDA-MB-468 breast,16.9 nM
same,TGI,MDA-MB-468 breast,36.7 nM
same,GI50,NCI-H23 lung,88.2 nM
same,TGI,NCI-H23 lung,2030 nM
same,GI50,HS 578T breast,33.6 nM
same,TGI,HS 578T breast,73.5 nM
same,GI50,SW-620 colon,36.3 nM
same,TGI,SW-620 colon,> 100000 nM
same,GI50,OVCAR-5 ovarian,1810 nM
same,TGI,OVCAR-5 ovarian,> 100000 nM
same,GI50,786-0 renal,261 nM
same,TGI,786-0 renal,10200 nM
same,GI50,HCT-15 colon,1540 nM
same,TGI,HCT-15 colon,11600 nM
same,GI50,DU-145 prostate,651 nM
same,TGI,DU-145 prostate,70400 nM
same,GI50,NCI-H522 lung,237 nM
same,TGI,NCI-H522 lung,835 nM
same,GI50,A498 renal,289 nM
same,TGI,A498 renal,6650 nM
same,GI50,SK-OV-3 ovarian,259 nM
same,TGI,SK-OV-3 ovarian,2280 nM
same,GI50,NCI-H226 lung,85.8 nM
same,TGI,NCI-H226 lung,273 nM
same,GI50,MCF7 breast,345 nM
same,TGI,MCF7 breast,7390 nM
same,GI50,HOP-62 NSCLC,184 nM
same,TGI,HOP-62 NSCLC,1390 nM
same,GI50,MDA-MB-435 melanoma,1470 nM
same,TGI,MDA-MB-435 melanoma,3370 nM
same,GI50,HCC-2998 colon,1360 nM
same,TGI,HCC-2998 colon,2810 nM
same,GI50,SK-MEL-28 melanoma,1350 nM
same,TGI,SK-MEL-28 melanoma,2910 nM
same,GI50,NCI-H460 NSCLC,48.7 nM
same,TGI,NCI-H460 NSCLC,1590 nM
same,GI50,MDA-MB-231 breast,322 nM
same,TGI,MDA-MB-231 breast,2540 nM
same,GI50,HT29 colon,75.3 nM
same,TGI,HT29 colon,> 100000 nM
same,GI50,SF-295 CNS,187 nM
same,TGI,SF-295 CNS,1210 nM
same,GI50,HL-60(TB) leukemia,13 nM
same,TGI,HL-60(TB) leukemia,28.1 nM
same,GI50,HOP-92 NSCLC,172 nM
same,TGI,HOP-92 NSCLC,10800 nM
same,GI50,M14 melanoma,364 nM
same,TGI,M14 melanoma,2210 nM
same,GI50,OVCAR-3 ovarian,156 nM
same,TGI,OVCAR-3 ovarian,382 nM
same,GI50,SNB-75 CNS,38.1 nM
same,TGI,SNB-75 CNS,113 nM
same,GI50,NCI-H322M lung,1290 nM
same,TGI,NCI-H322M lung,3480 nM
same,GI50,RXF 393 renal,22.3 nM
same,TGI,RXF 393 renal,61.2 nM
same,GI50,TK-10 renal,210 nM
same,TGI,TK-10 renal,706 nM
same,GI50,UACC-257 melanoma,2090 nM
same,TGI,UACC-257 melanoma,4190 nM
same,GI50,PC-3 prostate,299 nM
same,TGI,PC-3 prostate,13900 nM
same,GI50,UO-31 renal,111 nM
same,TGI,UO-31 renal,1210 nM
same,GI50,CAKI-1 renal,71.8 nM
same,TGI,CAKI-1 renal,> 100000 nM
same,GI50,U251 glioblastoma,228 nM
same,TGI,U251 glioblastoma,1300 nM
same,TGI,SR leukemia,18.7 nM
same,GI50,T-47D breast,2200 nM
same,TGI,T-47D breast,6040 nM
same,GI50,SN12C renal,1030 nM
same,TGI,SN12C renal,2420 nM
same,GI50,BT-549 breast,58.7 nM
same,TGI,BT-549 breast,386 nM
same,GI50,KM12 colon,1040 nM
same,TGI,KM12 colon,3490 nM
same,GI50,SF-268 CNS,103 nM
same,TGI,SF-268 CNS,436 nM
same,GI50,A549 NSCLC,800 nM
same,TGI,A549 NSCLC,> 100000 nM
same,TGI,CCRF-CEM leukemia,28 nM
same,GI50,SF-539 CNS,168 nM
same,TGI,SF-539 CNS,453 nM
same,GI50,MALME-3M melanoma,1420 nM
same,TGI,MALME-3M melanoma,3080 nM
same,GI50,OVCAR-4 ovarian,1120 nM
same,TGI,OVCAR-4 ovarian,5390 nM
